Laboratory results from ChEMBL document CHEMBL1201862, “PubChem BioAssay data set” (2004).
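Each compound was tested at five concentrations against cells in 96-well plates for 48 hours. Abbreviation: GI50, concentration required for 50% inhibition of growth.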 Activity calls are given as the source filed them. Rule as the data show it: active = GI50 up to about 1.1 µM and inactive = higher.

What was measured:
Test in all cases: DTP human tumour cell line panel, 48 h
DU-145 = system: DU-145
KM12 = system: KM12
UO-31 = system: UO-31
HT-29 = system: HT-29
Malme-3M = system: Malme-3M
PC-3 = system: PC-3
SW-620 = system: SW-620
UACC-62 = system: UACC-62
Hs-578T = system: Hs-578T
U-251 = system: U-251
SR = system: SR
SNB-75 = system: SNB-75
SF-539 = system: SF-539
NCI-H23 = system: NCI-H23
SF-295 = system: SF-295
SF-268 = system: SF-268
CCRF-CEM = system: CCRF-CEM
A549 = system: A549
RXF 393 = system: RXF 393
LOX IMVI = system: LOX IMVI

Measured: GI50

CCOP(=O)(OCC)C(F)(F)Cc1cnc(C)c2c1COC(C)(C)O2
inactive: DU-145 > 10 µM | KM12 > 10 µM | UO-31 > 10 µM | HT-29 > 10 µM | Malme-3M > 10 µM | PC-3 > 10 µM | SW-620 > 10 µM | UACC-62 > 10 µM | Hs-578T > 10 µM | U-251 > 10 µM | SR > 10 µM | SNB-75 > 10 µM | SF-539 > 10 µM | NCI-H23 > 10 µM | SF-295 > 10 µM | SF-268 > 10 µM | CCRF-CEM > 10 µM | A549 > 10 µM | RXF 393 > 10 µM

CC1CCc2sc3nc4n(c(=O)c3c2C1)CC(C)S4 (configuration not stated)
inactive: DU-145 28.3 µM | KM12 28.3 µM | UO-31 2.77 µM | HT-29 15.8 µM | LOX IMVI 20.9 µM | Malme-3M 25.7 µM | PC-3 22.5 µM | SW-620 43.9 µM | UACC-62 16.2 µM | Hs-578T 39.9 µM | U-251 25.6 µM | SR 26.2 µM | SNB-75 21.5 µM | NCI-H23 25.3 µM | SF-295 14.3 µM | SF-268 33.6 µM | A549 21 µM | RXF 393 15.4 µM

CON(C(=O)OC(C)(C)C)c1ccccc1
inactive: DU-145 > 100 µM | KM12 > 100 µM | UO-31 > 100 µM | HT-29 > 100 µM | LOX IMVI > 100 µM | Malme-3M > 100 µM | PC-3 > 100 µM | SW-620 > 100 µM | UACC-62 > 100 µM | Hs-578T > 100 µM | U-251 > 100 µM | SR > 100 µM | SNB-75 > 100 µM | NCI-H23 > 100 µM | SF-295 > 100 µM | SF-268 > 100 µM | CCRF-CEM > 100 µM | A549 > 100 µM | RXF 393 > 100 µM

Cc1nc2ccc(Br)cc2c(=O)n1-c1ccc(N)cc1
inactive: DU-145 > 100 µM | KM12 > 100 µM | UO-31 84.5 µM | HT-29 > 100 µM | LOX IMVI > 100 µM | Malme-3M > 100 µM | PC-3 > 100 µM | SW-620 > 100 µM | UACC-62 > 100 µM | Hs-578T > 100 µM | SR > 100 µM | SNB-75 17.2 µM | SF-539 > 100 µM | SF-295 > 100 µM | SF-268 > 100 µM | CCRF-CEM > 100 µM | A549 > 100 µM | RXF 393 28.1 µM

COc1cccc(/N=N/C(=N/NC(=O)c2cc(Cl)ccc2O)c2ccc(N(CCC#N)CCC#N)cc2C)c1
inactive: DU-145 43.4 µM | KM12 28.5 µM | UO-31 38.8 µM | HT-29 5.85 µM | Malme-3M 17.5 µM | PC-3 23.2 µM | UACC-62 44.6 µM | Hs-578T 33.2 µM | U-251 38.3 µM | SR 21.2 µM | SNB-75 21.4 µM | SF-539 18.4 µM | NCI-H23 35 µM | SF-295 37.3 µM | SF-268 47.1 µM | CCRF-CEM 15.3 µM | A549 62.1 µM | RXF 393 38.1 µM

Cc1cccc(NC(=S)NNC(=O)c2cc(-c3ccccc3)nc3ccccc23)c1
inactive: DU-145 34.4 µM | KM12 31.8 µM | UO-31 23.1 µM | HT-29 34.7 µM | Malme-3M 25 µM | PC-3 27.5 µM | SW-620 36.3 µM | UACC-62 38.5 µM | Hs-578T 37 µM | U-251 30.1 µM | SR 17.9 µM | SNB-75 36.6 µM | SF-539 21.8 µM | NCI-H23 27.9 µM | SF-268 42 µM | CCRF-CEM 12.7 µM | A549 25.4 µM | RXF 393 25.4 µM

COc1ccc(/N=N/C(=N\c2ccc(F)cc2)c2ccc(N(CCC#N)CCC#N)cc2)cc1
inactive: DU-145 33 µM | KM12 16.9 µM | UO-31 68.5 µM | HT-29 39.5 µM | PC-3 24.1 µM | SW-620 41.6 µM | UACC-62 15.7 µM | Hs-578T 27.4 µM | U-251 13.9 µM | SR 21.7 µM | SNB-75 24 µM | SF-539 > 100 µM | NCI-H23 17.4 µM | SF-295 32.9 µM | SF-268 35.2 µM | CCRF-CEM 36.1 µM | A549 18.7 µM | RXF 393 15.4 µM

CC(C)SC(=S)Sc1c(Cl)c(Cl)nc(Cl)c1Cl
inactive: DU-145 3.94 µM | KM12 8.24 µM | UO-31 8 µM | HT-29 3.4 µM | LOX IMVI 2.39 µM | Malme-3M 15.7 µM | PC-3 4.93 µM | SW-620 2.88 µM | UACC-62 9.35 µM | Hs-578T 18.6 µM | U-251 3.98 µM | SR 2.83 µM | SF-539 10.9 µM | NCI-H23 12.3 µM | SF-295 16.3 µM | SF-268 16.9 µM | CCRF-CEM 1.91 µM | A549 16.9 µM | RXF 393 4.57 µM
